The values below come from patent US20240124436A1 (priority 2019, published 2024).

This assay relates to pathogens of rice blast. Format: cell-based. The following applies: 25° C., 6 days, elongation length of hyphae.

Read-outs that look alike come from different tables or passages of the source.

As for `COc1nc(-c2nccs2)nc(F)c1C(F)(F)F` [Example 3, 6-fluoro-4-methoxy-2-(2-thiazolyl)-5-(trifluoromethyl)pyrimidine], the Control value (test solution 1000 ppm, 1,000 μl on oatmeal culture medium) was found to be 68 and the Control value (test solution 2000 ppm, 1,000 μl on oatmeal culture medium) is 100.
